Tests used:
in vitro [1] = settings: human, H184B5F5/M10 mammary epithelial cells
Source text: (§2) After took photos, cells were counted by using hemocytometer.

in vitro [2] = settings: human, MCF7 breast adenocarcinoma cells
Source text: as §2

in vitro [3] = settings: human, MDA-MB-453 breast adenocarcinoma cells
Source text: as §2

in vitro [4] = settings: human, MDA-MB-231 breast adenocarcinoma cells
Source text: as §2

TNFα = TNFα (Homo sapiens, UniProt P01375); assay: Blocking of TNFα-induced MCF-7 cell apoptosis (MTS); assay type: cell-based; settings: for Relative cell survival %: TNFα 12.5 ng/mL, MCF-7, 72 hours
Procedure: We further examined Au/LKI-1/ETA complex by binding with secondary antibody conjugated with 1-5 nm AuNPs. In TEM images of Au/LKI-1/ETA complex, binding of 1-5 nm gold-labeled secondary anti-human IgG antibodies to ETA located on the AuNP surface was observed (FIG. 4C). We further investigated the TNFα blocking ability of ETA and Au/LKI-1/ETA. MCF-7 cells (5×10^5) were treated with the mixtures of 12.5 ng/mL TNFα and 62.5, 125, 250, 500 ng/mL ETA or Au/LKI-1/ETA complex for 2 hours, respectively. The treated cells were incubated at 37° C. for 72 hours and then the cell numbers were counted by MTS [(3-(4,5-dimethylthiazol-2-yl)-5-(3-carboxymethoxyphenyl)-2-(4-sulfophenyl)-2H-tetrazolium)] assay. […] ETA and Au/LKI-1/ETA complex were used to test their abilities in blocking TNFα induced MCF-7 cell apoptosis, Table 4.

MDA-MB-231 breast tumors = assay: MDA-MB-231 breast tumor xenograft efficacy study; assay type: in vivo, BALB/c-nu/nu mice
Source text: FIG. 6 (A) to (D) show the treatment of MDA-MB-231 breast tumors. (A) Net animal weight change (g) during the treatment. From the data, doxorubicin and Au/LKI-1/Dox was cause the weight loss over 20% and 3% in nude mice (N=3), respectively. […] (B) The inhibition of MDA-MD-231 breast tumor growth (N=3): Dox>Au/LKI-1/Dox>Au/PEG=PBS. (C) TEM images of MDA-MB-231 breast tumor cells treated with Au/LKI-1/Dox complex was easy determined the Au/LKI-1/Dox complex in the tumor in xenograft model. (D) Immunohistochemistry of tumor specimens. Breast tumor specimens were taken from the mice, embedded in paraffin and stained with hematoxylineosin.
BALB/c-nu/nu mice were purchased from BioLASCO Taiwan. Eight week old male mice were injected unilaterally with 1.0×10^7 MDA-MB-231 breast tumor cells in 200 μL of 50:50 Matrigel/Leibovitz's (L-15) into the dorsum by subcutaneous injection. (1) Vehicle-PBS (negative control), (2) Doxorubicin (positive control), 5 mg/kg, (3) Au/PEG, (4) Au/LKI-1/Dox complex, 5 mg/kg of Dox. Treatment was ongoing until clinical symptoms necessitated sacrifice. Mice were weighed a minimum of two times/weekly and were monitored tumor size until clinical symptoms necessitated sacrifice (see FIG. 6A, 6B). TEM images of MDA-MB-231 breast tumor cells treated with Au/LKI-1/Dox complex in xenograft model. […] (see FIG. 6C) H&E stain of MDA-MB-231 tumor cells treated with Au/LKI-1/Dox complex in xenograft model. (see FIG. 6D)

MDA-MB-453 = assay: Cytotoxicity assay of Au/LKs/Dox complexes (MTS, 72 hours); assay type: cell-based; settings: Homo sapiens; MDA-MB-453, 72 hrs; read-out: IC50 value for complex cytotoxicity
Procedure: (§1) We examined the cytotoxicity of Au/LKs/Dox complexes and the IC50 value was calculated. […] The CellTiter 96® AQueous One Solution Cell Proliferation Assay (MTS) reagent was purchased from Promega (Madison, Wis., USA) and the assay was performed according to the manufacturer's instructions. Absorbance was measured at 490 nm using a microplate reader (Bio-tek, Powerwave X340, Winooski, Vt., USA).

[5] = as above; assay type: cell-based; settings: human, H184B5F5/M10 mammary epithelial cells; M10, 72 hrs; read-out: IC50 value for complex cytotoxicity
Procedure: as §1

Sequence of TNFα (P01375 77-233 limits assumed, species assumed): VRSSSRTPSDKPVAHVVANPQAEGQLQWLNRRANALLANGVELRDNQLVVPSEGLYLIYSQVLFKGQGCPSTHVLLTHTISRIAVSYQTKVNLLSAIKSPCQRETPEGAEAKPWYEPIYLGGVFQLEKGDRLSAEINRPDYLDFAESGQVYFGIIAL

Molecule	IC50 at 72 h (in vitro [1])	IC50 at 72 h (in vitro [2])	IC50 at 72 h (in vitro [3])	IC50 at 72 h (in vitro [4])	other results
NNC(=O)OCCOCCOCCOCCNC(=O)CCCCC1CCSS1 (centres unmarked) [Linker I-4]	560 ± 45.1 µM	569 ± 14.1 µM	342 ± 11 µM	576 ± 81.9 µM	
NNC(=O)OCCNC(=O)CNC(=O)CNC(=O)CNC(=O)CCCCC1CCSS1 (centres unmarked) [Linker II-3]	585 ± 132 µM	> 800 µM	> 800 µM	428 ± 116 µM	
NNC(=O)OCCOCCOCCNC(=O)CCCCC1CCSS1 (centres unmarked) [Linker I-3]	555 ± 33.5 µM	538 ± 39.6 µM	333 ± 9.8 µM	454 ± 142 µM	
NNC(=O)OCCOCCOCCOCCOCCOCCNC(=O)CCCCC1CCSS1 (centres unmarked) [Linker I-5]	569 ± 54.7 µM	419 ± 23.8 µM	460 ± 87.9 µM	484 ± 64.6 µM	
Etanercept					TNFα blocking ability (TNFα; MCF-7 cells): TNFα blocking ability was observed; Relative cell survival % (TNFα; dose 62.5 ng/mL): 36.7 ± 1.4%; Relative cell survival % (TNFα; dose 125 ng/mL): 68.5 ± 2.3%; Relative cell survival % (TNFα; dose 250 ng/mL): 82.1 ± 6.5%; Relative cell survival % (TNFα; dose 500 ng/mL): 103.3 ± 0.9%
NNC(=O)OCCNC(=O)CCCCC1CCSS1 (centres unmarked) [Linker I-2]	686 ± 105 µM	730 ± 36.7 µM	432 ± 96.6 µM	536 ± 21.6 µM	
COc1cccc2c1C(=O)c1c(O)c3c(c(O)c1C2=O)C[C@@](O)(C(=O)CO)C[C@@H]3O[C@H]1C[C@H](N)[C@H](O)[C@H](C)O1 [Dox, doxorubicin]					inhibition of MDA-MB-231 breast tumor growth (rank order) (MDA-MB-231 breast tumors; N=3, 5 mg/kg of Dox): Dox>Au/LKI-1/Dox>Au/PEG=PBS; weight loss during the treatment (MDA-MB-231 breast tumors; nude mice (N=3), 5 mg/kg of Dox): over 20%; necrosis in tumor specimens (hematoxylin-eosin) (MDA-MB-231 breast tumors; xenograft tumors): more necrosis; IC50 (MDA-MB-453): 0.65 ± 0.072 µM; IC50 at 72 h [5]: 0.14 ± 0.034 µM
NNC(=O)OCCOCCOCCOCCNC(=O)CCCCCS [Linker SHI-4]	> 800 µM	> 800 µM	130 ± 13.4 µM	533 ± 63.9 µM	
NNC(=O)OCCOCCNC(=O)CCCCCS [Linker SHI-1]	> 800 µM	> 800 µM	128 ± 15.1 µM	559 ± 23.3 µM	
NNC(=O)OCCNC(=O)CNC(=O)CNC(=O)CCCCC1CCSS1 (centres unmarked) [Linker II-2]	> 800 µM	> 800 µM	> 800 µM	> 800 µM	
NNC(=O)OCCNC(=O)CNC(=O)CCCCC1CCSS1 (centres unmarked) [Linker II-1]	500 µM	501 µM	> 800 µM	474 µM	
NNC(=O)OCCOCCNC(=O)CCCCC1CCSS1 (centres unmarked) [Linker I-1]	584 ± 62.7 µM	692 ± 51.9 µM	299 ± 23 µM	529 ± 52.1 µM	
